Reference: ChEMBL document CHEMBL5550160, “Leveraging a rationally designed veliparib-based anilide eliciting anti-leukemic effects for the design of pH-responsive polymer nanoformulation” (Eur J Med Chem, 2024)
Activity calls are given as the source filed them. The rule behind the calls is not given here.

Columns and labels:
[1] = molecular target: T1, Protein deacetylase HDAC6 (Homo sapiens) (UniProt Q9UBN7); experiment: Inhibition of HDAC6 (unknown origin) using p53 residues 379 to 382 [RHKK(Ac)] as fluorogenic substrate assessed as residual activity at 4.12 x 10^-8M (reference value: 101.06%); settings: dose 4.12 10^-8M
T1 sequence (whole entry): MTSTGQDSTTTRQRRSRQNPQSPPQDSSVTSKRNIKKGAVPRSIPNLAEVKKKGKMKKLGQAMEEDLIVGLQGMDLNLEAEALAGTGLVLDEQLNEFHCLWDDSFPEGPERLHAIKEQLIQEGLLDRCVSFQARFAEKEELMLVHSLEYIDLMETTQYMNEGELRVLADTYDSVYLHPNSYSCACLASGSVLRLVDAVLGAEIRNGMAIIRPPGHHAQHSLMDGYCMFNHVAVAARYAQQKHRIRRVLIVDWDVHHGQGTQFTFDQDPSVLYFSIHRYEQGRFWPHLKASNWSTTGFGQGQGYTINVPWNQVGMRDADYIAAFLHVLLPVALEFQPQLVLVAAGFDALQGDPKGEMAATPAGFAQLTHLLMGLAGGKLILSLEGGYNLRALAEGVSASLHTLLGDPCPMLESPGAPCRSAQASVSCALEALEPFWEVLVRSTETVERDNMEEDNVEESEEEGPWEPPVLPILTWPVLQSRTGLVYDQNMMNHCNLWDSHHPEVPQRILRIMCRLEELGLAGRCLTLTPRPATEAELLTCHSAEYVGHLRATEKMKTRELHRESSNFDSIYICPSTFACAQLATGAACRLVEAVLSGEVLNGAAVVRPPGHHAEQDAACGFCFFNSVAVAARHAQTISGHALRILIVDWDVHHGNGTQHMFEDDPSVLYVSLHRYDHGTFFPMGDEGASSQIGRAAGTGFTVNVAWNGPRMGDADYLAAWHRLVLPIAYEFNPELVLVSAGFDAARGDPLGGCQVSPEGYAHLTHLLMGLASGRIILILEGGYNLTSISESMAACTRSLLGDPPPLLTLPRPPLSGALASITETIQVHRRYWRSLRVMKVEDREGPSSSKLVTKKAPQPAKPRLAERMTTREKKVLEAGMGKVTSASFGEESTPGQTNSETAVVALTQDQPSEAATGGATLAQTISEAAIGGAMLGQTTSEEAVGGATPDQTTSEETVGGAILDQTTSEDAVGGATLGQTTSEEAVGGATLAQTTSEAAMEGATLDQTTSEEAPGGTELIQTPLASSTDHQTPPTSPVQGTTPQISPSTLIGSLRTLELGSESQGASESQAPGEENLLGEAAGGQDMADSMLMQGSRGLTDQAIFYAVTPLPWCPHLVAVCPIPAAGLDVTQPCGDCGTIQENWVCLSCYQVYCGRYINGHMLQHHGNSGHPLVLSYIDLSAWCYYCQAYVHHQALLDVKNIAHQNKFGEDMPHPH

[2] = molecular target: Histone deacetylase 4 (Homo sapiens) (UniProt P56524); experiment: Inhibition of HDAC4 (unknown origin) assessed as residual activity at 3.33 x 10^-6M (reference value: 98.90%); settings: dose 3.33 10^-6M
Sequence of Histone deacetylase 4 (Homo sapiens) (P56524 whole entry, the tested form may be a part): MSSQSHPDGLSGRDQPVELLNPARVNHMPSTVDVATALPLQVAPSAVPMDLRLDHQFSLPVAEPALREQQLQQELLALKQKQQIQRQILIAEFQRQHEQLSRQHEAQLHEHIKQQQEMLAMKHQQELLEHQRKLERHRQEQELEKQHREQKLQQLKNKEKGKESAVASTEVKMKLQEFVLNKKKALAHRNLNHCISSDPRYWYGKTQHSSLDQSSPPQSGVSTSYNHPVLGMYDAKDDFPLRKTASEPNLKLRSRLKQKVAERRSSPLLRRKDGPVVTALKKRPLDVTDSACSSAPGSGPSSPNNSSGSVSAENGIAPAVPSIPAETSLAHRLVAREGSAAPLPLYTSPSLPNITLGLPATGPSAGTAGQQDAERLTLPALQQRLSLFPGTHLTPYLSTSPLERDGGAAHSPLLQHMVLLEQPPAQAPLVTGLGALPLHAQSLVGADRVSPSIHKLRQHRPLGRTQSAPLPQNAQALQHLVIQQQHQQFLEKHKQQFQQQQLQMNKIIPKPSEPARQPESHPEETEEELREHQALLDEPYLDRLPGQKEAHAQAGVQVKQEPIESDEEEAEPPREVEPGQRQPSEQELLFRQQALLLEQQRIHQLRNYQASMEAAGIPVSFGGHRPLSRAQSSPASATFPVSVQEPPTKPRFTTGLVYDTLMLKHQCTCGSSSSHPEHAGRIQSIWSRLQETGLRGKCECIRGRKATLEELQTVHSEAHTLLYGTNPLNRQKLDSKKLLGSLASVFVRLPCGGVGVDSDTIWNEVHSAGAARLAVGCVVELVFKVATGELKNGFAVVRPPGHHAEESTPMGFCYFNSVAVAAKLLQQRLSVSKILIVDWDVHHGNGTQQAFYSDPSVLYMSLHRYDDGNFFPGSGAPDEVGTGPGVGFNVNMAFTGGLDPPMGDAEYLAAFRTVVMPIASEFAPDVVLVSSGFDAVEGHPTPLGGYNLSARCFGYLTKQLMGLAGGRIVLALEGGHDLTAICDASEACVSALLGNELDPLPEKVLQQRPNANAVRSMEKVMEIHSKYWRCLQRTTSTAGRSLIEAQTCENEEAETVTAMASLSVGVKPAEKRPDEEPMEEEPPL

[3] = molecular target: Histone deacetylase 5 (Homo sapiens) (UniProt Q9UQL6); experiment: Inhibition of HDAC5 (unknown origin) assessed as residual activity at 1.37 x 10^-8M (reference value: 100%); settings: dose 1.37 10^-8M
Sequence of Histone deacetylase 5 (Homo sapiens) (Q9UQL6 whole entry, the tested form may be a part): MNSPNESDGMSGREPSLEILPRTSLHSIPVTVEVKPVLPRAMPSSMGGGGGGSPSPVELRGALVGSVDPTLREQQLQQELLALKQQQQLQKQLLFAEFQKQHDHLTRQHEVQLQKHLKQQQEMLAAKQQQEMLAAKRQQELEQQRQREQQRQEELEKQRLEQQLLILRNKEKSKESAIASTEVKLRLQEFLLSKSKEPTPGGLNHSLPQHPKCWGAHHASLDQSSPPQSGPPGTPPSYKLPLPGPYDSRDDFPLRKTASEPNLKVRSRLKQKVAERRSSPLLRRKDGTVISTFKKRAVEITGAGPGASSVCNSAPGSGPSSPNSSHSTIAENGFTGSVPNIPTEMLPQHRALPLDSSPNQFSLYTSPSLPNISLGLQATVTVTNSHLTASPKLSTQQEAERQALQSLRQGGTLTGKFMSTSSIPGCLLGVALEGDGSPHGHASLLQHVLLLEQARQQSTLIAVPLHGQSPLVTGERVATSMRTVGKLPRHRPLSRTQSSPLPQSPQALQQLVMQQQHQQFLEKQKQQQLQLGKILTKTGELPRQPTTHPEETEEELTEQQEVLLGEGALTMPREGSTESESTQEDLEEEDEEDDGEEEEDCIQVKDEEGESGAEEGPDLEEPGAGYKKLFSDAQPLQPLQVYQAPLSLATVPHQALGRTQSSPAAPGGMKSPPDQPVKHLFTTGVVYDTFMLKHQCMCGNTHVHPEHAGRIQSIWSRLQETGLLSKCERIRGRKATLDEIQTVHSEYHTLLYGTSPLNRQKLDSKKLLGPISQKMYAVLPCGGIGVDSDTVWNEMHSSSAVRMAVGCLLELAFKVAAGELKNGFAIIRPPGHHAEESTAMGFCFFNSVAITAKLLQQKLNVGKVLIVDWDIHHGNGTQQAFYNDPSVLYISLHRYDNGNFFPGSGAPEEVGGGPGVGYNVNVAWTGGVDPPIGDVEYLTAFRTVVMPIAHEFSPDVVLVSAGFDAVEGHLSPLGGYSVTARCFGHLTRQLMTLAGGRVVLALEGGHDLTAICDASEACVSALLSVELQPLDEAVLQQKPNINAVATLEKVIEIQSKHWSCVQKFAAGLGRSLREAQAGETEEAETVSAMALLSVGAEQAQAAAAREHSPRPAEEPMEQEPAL

[4] = molecular target: T2, Histone deacetylase 3 (Homo sapiens, UniProt O15379); experiment: Inhibition of HDAC3 (unknown origin) using p53 residues 379 to 382 [RHKK(Ac)] as fluorogenic substrate assessed as residual activity at 1.11 x 10^-6M (reference value: 103.08%); settings: dose 1.1 10^-6M
T2 sequence (O15379 whole entry, the tested form may be a part): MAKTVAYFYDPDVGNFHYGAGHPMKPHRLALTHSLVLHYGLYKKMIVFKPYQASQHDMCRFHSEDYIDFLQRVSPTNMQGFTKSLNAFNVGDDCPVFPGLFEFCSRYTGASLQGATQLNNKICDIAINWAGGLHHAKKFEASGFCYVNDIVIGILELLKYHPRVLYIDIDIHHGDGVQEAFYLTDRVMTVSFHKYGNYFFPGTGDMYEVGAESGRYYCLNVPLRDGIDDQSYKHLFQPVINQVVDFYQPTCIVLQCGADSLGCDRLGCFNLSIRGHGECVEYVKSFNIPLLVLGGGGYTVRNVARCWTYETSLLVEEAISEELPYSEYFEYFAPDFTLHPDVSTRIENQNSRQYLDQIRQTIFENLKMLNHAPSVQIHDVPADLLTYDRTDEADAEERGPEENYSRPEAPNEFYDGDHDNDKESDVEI

[5] = molecular target: T1, Protein deacetylase HDAC6 (Homo sapiens); experiment: Inhibition of HDAC6 (unknown origin) using p53 residues 379 to 382 [RHKK(Ac)] as fluorogenic substrate assessed as residual activity at 5.08 x 10^-10M (reference value: 101.06%); settings: dose 5.08 10^-10M
[6] = tested on: K562; experiment: cells; settings: Homo sapiens
Description: Antiproliferative activity against human K562 cells assessed as inhibition of cell growth by MTT assay

[7] = tested on: HL-60; experiment: Induction of cell cycle arrest in G0/G1 phase in human HL-60 cells assessed as downregulation of AKT protein expression at 0.5 to 1 times IC50 by Western blot analysis; type: functional, cell-based
[8] = molecular target: Histone deacetylase 4 (Homo sapiens) (UniProt P56524); experiment: Inhibition of HDAC4 (unknown origin) assessed as residual activity at 1.1 x 10^-6M (reference value: 98.90%); settings: dose 1.1 10^-6M
[9] = molecular target: T2, Histone deacetylase 3; experiment: Inhibition of HDAC3 (unknown origin) using p53 residues 379 to 382 [RHKK(Ac)] as fluorogenic substrate assessed as residual activity at 3.70 x 10^-7M (reference value: 103.08%); settings: dose 3.7 10^-7M
[10] = molecular target: Histone deacetylase 2 (Homo sapiens, UniProt Q92769); experiment: Inhibition of HDAC2 (unknown origin) assessed as residual activity at 1.23 x 10^-7M (reference value: 99.81%); settings: dose 1.23 10^-7M
Sequence of Histone deacetylase 2 (Q92769 whole entry): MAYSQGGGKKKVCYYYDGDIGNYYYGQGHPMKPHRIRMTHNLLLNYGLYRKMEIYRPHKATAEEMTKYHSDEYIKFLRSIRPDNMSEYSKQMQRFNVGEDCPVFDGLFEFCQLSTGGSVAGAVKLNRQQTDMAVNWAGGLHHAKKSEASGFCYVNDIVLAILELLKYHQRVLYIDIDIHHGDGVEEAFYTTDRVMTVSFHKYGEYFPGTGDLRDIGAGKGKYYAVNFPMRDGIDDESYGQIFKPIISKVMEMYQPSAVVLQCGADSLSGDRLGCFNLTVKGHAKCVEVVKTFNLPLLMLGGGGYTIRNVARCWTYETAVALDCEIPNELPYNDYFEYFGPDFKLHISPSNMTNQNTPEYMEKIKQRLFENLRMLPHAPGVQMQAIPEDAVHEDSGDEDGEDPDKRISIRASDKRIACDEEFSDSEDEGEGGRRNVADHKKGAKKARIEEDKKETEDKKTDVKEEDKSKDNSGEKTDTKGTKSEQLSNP

[11] = molecular target: T3, Polyamine deacetylase HDAC10 (Homo sapiens) (UniProt Q969S8); experiment: Inhibition of HDAC10 (unknown origin) assessed as residual activity at 1.1 x 10^-6M (reference value: 101.54%); settings: dose 1.1 10^-6M
T3 sequence (whole entry): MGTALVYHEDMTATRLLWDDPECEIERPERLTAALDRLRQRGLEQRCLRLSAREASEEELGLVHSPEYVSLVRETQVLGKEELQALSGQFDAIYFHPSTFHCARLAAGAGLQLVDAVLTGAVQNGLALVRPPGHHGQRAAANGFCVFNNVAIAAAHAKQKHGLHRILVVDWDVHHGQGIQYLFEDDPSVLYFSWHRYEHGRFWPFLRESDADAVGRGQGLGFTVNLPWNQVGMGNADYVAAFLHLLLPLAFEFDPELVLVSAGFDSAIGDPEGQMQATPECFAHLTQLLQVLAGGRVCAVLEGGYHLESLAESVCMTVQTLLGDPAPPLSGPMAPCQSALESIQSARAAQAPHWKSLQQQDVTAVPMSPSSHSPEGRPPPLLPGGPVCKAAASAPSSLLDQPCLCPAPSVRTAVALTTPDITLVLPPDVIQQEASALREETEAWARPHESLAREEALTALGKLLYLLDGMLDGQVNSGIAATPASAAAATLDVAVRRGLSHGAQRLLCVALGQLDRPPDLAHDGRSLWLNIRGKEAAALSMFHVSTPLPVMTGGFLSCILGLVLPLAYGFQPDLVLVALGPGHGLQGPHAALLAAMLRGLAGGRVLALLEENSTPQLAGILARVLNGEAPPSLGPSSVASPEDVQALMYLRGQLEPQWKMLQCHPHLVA

[12] = molecular target: Histone deacetylase 1 (Homo sapiens, UniProt Q13547); experiment: Inhibition of HDAC1 (unknown origin) using p53 residues 379 to 382 [RHKK(Ac)] as fluorogenic substrate assessed as residual activity at 4.12 x 10^-8M (reference value: 98.06%); settings: dose 4.12 10^-8M
Sequence of Histone deacetylase 1 (Q13547 whole entry, the tested form may be a part): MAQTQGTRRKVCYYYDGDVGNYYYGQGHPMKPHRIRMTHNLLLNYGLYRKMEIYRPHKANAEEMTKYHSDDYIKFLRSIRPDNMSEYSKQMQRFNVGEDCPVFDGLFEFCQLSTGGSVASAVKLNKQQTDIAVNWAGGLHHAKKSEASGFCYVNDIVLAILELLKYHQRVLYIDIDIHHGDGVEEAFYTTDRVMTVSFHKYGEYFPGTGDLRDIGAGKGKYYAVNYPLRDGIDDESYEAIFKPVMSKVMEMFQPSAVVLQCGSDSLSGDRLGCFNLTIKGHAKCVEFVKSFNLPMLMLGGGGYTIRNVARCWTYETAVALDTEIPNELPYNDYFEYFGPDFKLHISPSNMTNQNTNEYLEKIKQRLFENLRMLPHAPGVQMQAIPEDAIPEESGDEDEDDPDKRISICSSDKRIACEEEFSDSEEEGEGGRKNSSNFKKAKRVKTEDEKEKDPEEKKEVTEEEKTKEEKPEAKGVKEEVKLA

[13] = tested on: HL-60; experiment: Downregulation of HDAC2 protein expression in human HL-60 cells by Western blot analysis; type: functional, cell-based; settings: dose 0.2-5 µM

Activity [1]: 99.2% | Activity [2]: 94.3% | Activity [3]: 84% | Activity [4]: 21.7% | Activity [5]: 101% | IC50 [6]: 1.21 µM | Activity [8]: 76.5% | Activity [9]: 54.9% | Activity [10]: 56.5% | Activity [11]: 96.2% | Activity [12]: 51.3%
Structure (SMILES): NC(=O)c1cccc2[nH]c(-c3ccc(NCc4ccc(C(=O)Nc5ccccc5N)cc4)cc3)nc12
Activity [7]: Active | Activity [13]: Dose-Dependent Effect
